Biological target: T1, CYP21 (steroid 21-hydroxylase) (Homo sapiens, UniProt P08686)
T1 sequence (P08686 whole entry): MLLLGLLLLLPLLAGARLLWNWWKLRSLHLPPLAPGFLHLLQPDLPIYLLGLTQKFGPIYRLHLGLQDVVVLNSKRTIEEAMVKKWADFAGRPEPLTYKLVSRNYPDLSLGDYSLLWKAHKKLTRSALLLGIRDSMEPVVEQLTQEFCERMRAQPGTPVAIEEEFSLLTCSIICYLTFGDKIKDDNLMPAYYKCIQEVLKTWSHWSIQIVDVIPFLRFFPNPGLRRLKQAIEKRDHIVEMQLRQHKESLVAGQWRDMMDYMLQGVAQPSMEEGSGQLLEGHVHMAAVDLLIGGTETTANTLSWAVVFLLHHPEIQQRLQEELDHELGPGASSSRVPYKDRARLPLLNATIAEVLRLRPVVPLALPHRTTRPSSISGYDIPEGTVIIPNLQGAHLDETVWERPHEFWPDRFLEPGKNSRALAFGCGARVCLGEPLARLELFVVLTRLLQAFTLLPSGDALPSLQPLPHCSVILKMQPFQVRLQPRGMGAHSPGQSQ
Test: Inhibition of human CYP21 transfected in HEK293 cells assessed as decrease in conversion of progesterone to 11-deoxycorticosterone preincubated for 5 hrs followed by progesterone addition measured after 20 hrs by ELISA
Format: cell-based
Parameters: concentration or dose not given beside the values
Conditions: HEK293 cells transfected with human CYP21, probe progesterone

inhibition at 20 h | Compound
10 to 50% | CO[C@H]1CC[C@@]2(C)[C@@H](CC[C@@H]3[C@@H]2CC[C@]2(C)C(c4cnccc4C)=CC[C@@H]32)C1
10 to 50% | CC1C[C@H]2C3=CC=C(c4ccc(F)nc4)[C@@]3(C)CC[C@@H]2[C@@]2(C)CCNC(=O)C=C12 (stereo not given in full)
10 to 50% | CCc1cncc(C2=CC[C@H]3[C@@H]4CC[C@H]5C[C@@H](OC)CC[C@]5(C)[C@H]4CC[C@]23C)c1
10 to 50% | C[C@]12CC(O)CC1CC[C@@H]1[C@@H]2CC[C@]2(C)C(c3cncc(Cl)c3)=CC[C@@H]12 (stereo not given in full)
10 to 50% | CC(C)(C)NC(=O)O[C@H]1CC[C@@]2(C)C(=CC[C@H]3C4=CC=C(c5cccnc5)[C@@]4(C)CC[C@@H]32)C1
10 to 50% | CC(C)C(=O)O[C@H]1CC[C@@]2(C)C(=CC[C@H]3C4=CC=C(c5cccnc5)[C@@]4(C)CC[C@@H]32)C1
10 to 50% | CC(=O)N(C)[C@H]1CC[C@@]2(C)C(CC[C@@H]3[C@@H]2CC[C@]2(C)C(c4cncc(C)c4)=CC[C@@H]32)C1 (stereo not given in full)
< 10% | COC1CC[C@@]2(C)C(=CC[C@@H]3[C@@H]2CC[C@]2(C)C(c4cccnc4)=CC[C@@H]32)C1 (stereo not given in full)
10 to 50% | CC1(O)C=C2CC[C@@H]3[C@H](CC[C@]4(C)C(c5cccnc5)=CC[C@@H]34)[C@@]2(C)CC1 (stereo not given in full)
< 10% | C[C@]12CC[C@H](O)CC1=CC[C@@H]1[C@@H]2CC[C@]2(C)C(c3cncc(NS(=O)(=O)C(F)(F)F)c3)=CC[C@@H]12
< 10% | CC1(C)C2=CC[C@@H]3[C@H](CC[C@]4(C)C(c5cccnc5)=CC[C@@H]34)[C@@]2(C)CCC1O (stereo not given in full)
< 10% | CC1C[C@H]2C3=CC=C(c4cncc(C(F)F)c4)[C@@]3(C)CC[C@@H]2[C@@]2(C)CCNC(=O)C=C12 (stereo not given in full)
10 to 50% | Cc1ccccc1C(=O)O[C@H]1CC[C@@]2(C)C(=CC[C@H]3C4=CC=C(c5cccnc5)[C@@]4(C)CC[C@@H]32)C1
10 to 50% | CCOc1cncc(C2=CC[C@H]3[C@@H]4CC[C@H]5C[C@@H](OC)CC[C@]5(C)[C@H]4CC[C@]23C)c1
10 to 50% | C[C@]12CCC3(CO3)CC1CCC1C2CC[C@]2(C)C(c3cccnc3)=CCC12 (stereo not given in full)
10 to 50% | C[C@]12CC[C@@](O)(C3CC3)CC1CC[C@@H]1[C@@H]2CC[C@]2(C)C(c3cccnc3)=CC[C@@H]12 (stereo not given in full)
< 10% | CCNC(=O)NC1CC[C@@]2(C)C(CC[C@@H]3[C@@H]2CC[C@]2(C)C(c4cccnc4)=CC[C@@H]32)C1C (stereo not given in full)
< 10% | CC(=O)NC1CC[C@@]2(C)C(CC[C@@H]3[C@@H]2CC[C@]2(C)C(c4cccnc4)=CC[C@@H]32)C1C (stereo not given in full)
10 to 50% | Cc1cncc(C2=CC=C3[C@@H]4CCC5CNC(=O)CC[C@]5(C)[C@H]4CC[C@]23C)c1 (stereo not given in full)
≥ 50% | C[C@]12CCNC(=O)CC1CCC1C2CC[C@]2(C)C(c3cncc(C(F)F)c3)=CCC12 (stereo not given in full)
10 to 50% | CCNC(=O)NC1CC[C@@]2(C)C(=CC[C@@H]3[C@@H]2CC[C@]2(C)C(c4cncc(OC)c4)=CC[C@@H]32)C1 (stereo not given in full)
< 10% | CC1(C)C(=O)CC[C@@]2(C)C1=CC[C@@H]1[C@@H]2CC[C@]2(C)C(c3cccnc3)=CC[C@@H]12

inhibition at 20 h | Compound
10 to 50% | CC1C[C@@H]2[C@H](CC[C@]3(C)C(c4cccnc4)=CC[C@@H]23)[C@@]2(C)CC[C@](C)(O)CC12 (stereo not given in full)
10 to 50% | CO[C@H]1CC[C@@]2(C)C(=CC[C@@H]3[C@@H]2CC[C@]2(C)C(n4ccnc4)=CC[C@@H]32)C1
< 10% | CC1C(O)CC[C@@]2(C)C1CC[C@@H]1[C@@H]2CC[C@]2(C)C(c3cncc(C(F)F)c3)=CC[C@@H]12 (stereo not given in full)
< 10% | CC(CO)(CO)C(=O)O[C@H]1CC[C@@]2(C)C(=CC[C@H]3C4=CC=C(c5cccnc5)[C@@]4(C)CC[C@@H]32)C1
10 to 50% | Cc1cnc(F)c(C2=CC[C@H]3[C@@H]4CC=C5C[C@@H](O)CC[C@]5(C)[C@H]4CC[C@]23C)c1
10 to 50% | CC(C)(C)C(=O)N[C@@H]1CC[C@@]2(C)C(CC[C@@H]3[C@@H]2CC[C@]2(C)C(c4cccnc4)=CC[C@@H]32)C1 (stereo not given in full)
10 to 50% | CCc1ccncc1C1=CC=C2[C@@H]3CCC4CC(=O)NCC[C@]4(C)[C@H]3CC[C@]12C (stereo not given in full)
10 to 50% | CC(=O)O[C@H]1CC[C@@]2(C)C(CC[C@H]3C4=CC=C(c5cnccc5C)[C@@]4(C)CC[C@@H]32)C1 (stereo not given in full)
10 to 50% | CC(=O)N(C)[C@H]1CC[C@@]2(C)C(CC[C@@H]3[C@@H]2CC[C@]2(C)C(c4cccnc4)=CC[C@@H]32)C1 (stereo not given in full)
< 10% | C[C@]12CC[C@H](O)CC1CC[C@@H]1[C@@H]2CC[C@]2(C)C(c3cccnc3)CC[C@@H]12 (stereo not given in full)
< 10% | CCc1ccncc1C1=CC=C2[C@@H]3CCC4C[C@@H](O)CC[C@]4(C)[C@H]3CC[C@]12C (stereo not given in full)
10 to 50% | Cc1ccncc1C1=CC=C2[C@@H]3CC[C@H]4CNC(=O)CC[C@]4(C)[C@H]3CC[C@]12C
≥ 50% | C[C@@]1(O)CC[C@@]2(C)C(=CC[C@@H]3[C@@H]2CC[C@]2(C)C(c4cccnc4)=CC[C@@H]32)C1
10 to 50% | COC(=O)c1cncn1C1=CC[C@H]2[C@@H]3CC=C4C[C@@H](O)CC[C@]4(C)[C@H]3CC[C@]12C
≥ 50% | C[C@]12CC[C@H]3[C@@H](CC(=O)C45CC4CC[C@]35C)C1=CC=C2c1cccnc1 (stereo not given in full)
10 to 50% | Cc1ccncc1C1=CC=C2[C@@H]3CCC4CC(=O)CC[C@]4(C)[C@H]3CC[C@]12C (stereo not given in full)
10 to 50% | C[C@]12CC[C@H](O)CC1CC[C@@H]1[C@@H]2CC[C@]2(C)C(c3ccc[n+]([O-])c3)CC[C@@H]12 (stereo not given in full)
10 to 50% | C[C@]12CC[C@H]3[C@@H](CC=C4C[C@@H](OC(=O)c5ccccc5)CC[C@@]43C)C1=CC=C2c1cccnc1
10 to 50% | CC1(O)CC2CC[C@@H]3C(CC[C@]4(C)C(c5cccnc5)=CC[C@@H]34)[C@@]2(C)C1 (single isomer, unassigned)
10 to 50% | C[C@]12CC[C@@H](NS(C)(=O)=O)CC1=CC[C@H]1C3CC=C(c4cccnc4)[C@@]3(C)CC[C@@H]12 (single isomer, unassigned)
10 to 50% | C[C@]12CCC(N)CC1CC[C@@H]1[C@@H]2CC[C@]2(C)C(c3cccnc3)=CC[C@@H]12 (single isomer, unassigned)
10 to 50% | CNC1CC[C@@]2(C)C(CCC3[C@@H]2CC[C@]2(C)C(c4cncc(C)c4)=CC[C@@H]32)C1 (single isomer, unassigned)

Compound | inhibition at 20 h
CC[C@@]1(O)CC[C@@]2(C)C(CC[C@@H]3[C@@H]2CC[C@]2(C)C(c4cccnc4)=CC[C@@H]32)C1 (stereo not given in full) | < 10%
C[C@]12CC[C@H]3[C@@H](CCC4=CC(=O)CC[C@@]43C)C1=CC=C2c1ccc(F)nc1 | 10 to 50%
C[C@]12CCC(=O)C=C1C(C1CC1)C[C@@H]1[C@@H]2CC[C@]2(C)C(c3cncc(F)c3)=CC[C@@H]12 (stereo not given in full) | 10 to 50%
CC1C(=O)CC[C@@]2(C)C1CC[C@@H]1[C@@H]2CC[C@]2(C)C(c3cccnc3)=CC[C@@H]12 (stereo not given in full) | 10 to 50%
CC1C[C@@H]2[C@H](CC[C@]3(C)C(c4cncc(C(F)F)c4)=CC[C@@H]23)[C@@]2(C)CCC(=O)C=C12 (stereo not given in full) | 10 to 50%
C[C@]12CC/C(=N\O)C=C1C(F)C[C@@H]1[C@@H]2CC[C@]2(C)C(c3cccnc3)=CC[C@@H]12 (stereo not given in full) | 10 to 50%
CC1C[C@H]2C3=CC=C(c4ccc(F)nc4)[C@@]3(C)CC[C@@H]2[C@@]2(C)CCC(=O)C=C12 (stereo not given in full) | 10 to 50%
C[C@]12CCC(=O)C=C1C(n1ccnn1)C[C@@H]1[C@@H]2CC[C@]2(C)C(c3cccnc3)=CC[C@@H]12 (stereo not given in full) | 10 to 50%
C[C@]12CCC(=O)C=C1C(c1ccccc1)C[C@@H]1[C@@H]2CC[C@]2(C)C(c3cccnc3)=CC[C@@H]12 (stereo not given in full) | < 10%
C[C@@]1(O)CC[C@@]2(C)C(CCC3C4=CC=C(c5cccnc5)[C@@]4(C)CC[C@@H]32)C1 (single isomer, unassigned) | < 10%
C#CC1(O)CC[C@@]2(C)C(CC[C@@H]3[C@@H]2CC[C@]2(C)C(c4cccnc4)=CC[C@@H]32)C1 (single isomer, unassigned) | 10 to 50%

From ChEMBL document CHEMBL3882724 (2013)
